Test results as given in patent US9376499B2, “PAR-1 activation by metalloproteinase-1 (MMP-1)” (Tufts Medical Center, Inc., priority 2009, dated 2016).
Non-standard residues stand in square brackets, D forms with d. Residues, ends and D or L forms follow the SMILES beside them. No end group written: not given here. *: point of attachment. 4Abz = Nc1ccc(C(=O)O)cc1; NHOH = ON*

What was measured:
MMP-1 [1] = molecular target: T1, MMP-1 (Cavia porcellus, UniProt H0V812); test: Collagenase activity released from collagen-treated guinea pig platelets; format: biochemical; conditions: 20 μg/ml collagen; 3 μM FN-439 or 20 μg/ml Ab
T1 construct: endogenous in cells; host or cells: platelets of Hartley guinea pigs
Protocol: Animal experiments were performed in accordance with the National Institutes of Health guidelines and approved by the Tufts Medical Center Institutional Animal Care and Use Committee. 2-4 week old Hartley guinea pigs (170-260 g) were anesthetized by an i.p. injection of xylazine (10 mg/kg) plus ketamine (50 mg/kg) and then catheterized via the left jugular vein and injected (200 μL) with either vehicle (20% DMSO/80% water), P1pal-7 or FN-439. For determination of collagen-dependent systemic platelet activation, 10 min after administration of inhibitors, 200 μg collagen in 200 μL of PBS was delivered via the jugular vein. Ten min after collagen injection, blood was collected into sodium citrate (1% v/v final) from the contralateral jugular vein and platelet counts were measured with a Hemavet850. The enzymatic activity of active MMP-1 in supernatants and platelet lysates was determined using DQ collagen I as fluorogenic substrate in the presence or absence of 3 μM FN-439, or 20 μg/ml of control IgG or a MMP-1 blocking Ab (preincubated for 2 h at 37° C.), as indicated.
Dashed grey line: secondary antibody alone; Solid lines: FACS profiles of platelets treated with the indicated concentrations of collagen for 15 min at 37° C. and then stained with primary MMP-1 (AB806) plus secondary antibodies.

MMP-3 = MMP-3 (Homo sapiens, UniProt P08254); conditions: cited from earlier work
PAR1 [2] = test: Release of PAR1 N-terminal cleavage peptide from gel-filtered platelets (dot blot, IIaR-A antibody); format: cell-based, human
Text: To further understand how collagen is able to activate significant amounts of endogenous MMP-1 collagenase activity on the surface of platelets, experiments were devised to determine if PAR-1 is cleaved in either an autocrine or paracrine manner following exposure to collagen. Using a monoclonal antibody raised against the amino-terminal thrombin-cleavage peptide region of PAR1, residues 32-46 (Loew et al., 2000), the relative abilities of thrombin, MMP-1 and collagen to cause cleavage of platelet PAR1 was assessed. Gel filtered platelets were treated for 10 min with thrombin (3 nM), MMP-1 (3 nM), collagen (5 μg/ml), in the presence or absence (PBS buffer) of 0.00013 U hirudin or 5 μM FN-439 at 37° C. Supernatants were concentrated 20-fold and applied to nitrocellulose membranes, then probed with the IIaR-A monoclonal antibody. The PAR1 N-terminal thrombin deavage peptide (A26-R41) and PAR1 flexible linker peptide (N-acetyl-T67-L84 -C) (Kuliopulos et al., 1999) served as positive and negative controls (100 ng), respectively.
These platelets were then stimulated with collagen (5 μg/ml) for 10 min. at 37° C. Supernatants were concentrated 20-fold and applied to nitrocellulose membranes, then probed with the IIaR-A monoclonal antibody. […] FN-439, or an MMP1-blocking antibody (20 μg/ml) but not by thrombin inhibitor, hirudin (see FIG. 1E, FIG. 1G).

MMP-1 [3] = molecular target: T2, MMP-1 (Homo sapiens, UniProt P03956); conditions: cited from earlier work
T2 sequence (P03956 100-469): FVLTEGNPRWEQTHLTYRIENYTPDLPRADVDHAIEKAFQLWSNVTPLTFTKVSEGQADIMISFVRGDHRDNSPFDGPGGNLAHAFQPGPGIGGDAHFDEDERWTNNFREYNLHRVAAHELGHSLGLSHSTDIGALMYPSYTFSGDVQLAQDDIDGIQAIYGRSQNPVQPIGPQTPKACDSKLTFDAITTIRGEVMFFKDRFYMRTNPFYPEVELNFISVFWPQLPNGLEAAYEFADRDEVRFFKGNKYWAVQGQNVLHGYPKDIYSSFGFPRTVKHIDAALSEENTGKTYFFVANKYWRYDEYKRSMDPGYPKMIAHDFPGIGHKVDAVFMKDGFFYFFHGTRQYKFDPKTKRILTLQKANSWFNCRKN

MAPKAP-K2 = test: Collagen activation of phospho-MAPKAP-K2 in platelets (data not shown); format: cell-based, human
MMP-8 = MMP-8 (Homo sapiens, UniProt P22894); conditions: cited from earlier work
MMP-9 = MMP-9 (Homo sapiens, UniProt P14780); conditions: cited from earlier work
[4] = Carotid artery FeCl3 injury arterial thrombosis model; format: in vivo, guinea pig; conditions: for prolongation of the mean occlusion time: P1pal-7 alone 0.3 mg/kg, FN-439 alone 2.0 mg/kg i.v.
Text: To assess the efficacy on arterial thrombosis by blockade of thrombin, MMP-1, or PAR1, a standard carotid artery FeCl3 injury model was used in guinea pigs. FeCl3 causes denudation of the artery and exposure of type I collagen and other subendothelial matrix proteins. The effects of blocking thrombin with bivalirudin, MMP-1 with FN-439, and PAR1 with either the small molecule antagonist RWJ-56110 or the P1pal-7 pepducin on arterial thrombosis were then compared using a dopier probe.
For these arterial thrombosis experiments, 10 min after i.v. administration of vehicle (−), bivalirudin, RWJ-56110, P1 pal-7 or FN-439 (n=4-5) through the jugular vein at the indicated concentrations, the right carotid arteries were injured for 20 min using a 24 mm^2 piece of Bio-Rad Trans-Blot paper soaked in 20% FeCl3. Arterial flow 5 mm distal to the site of injury was measured with a 0.5 V Doppler probe (Transonic Systems). An arterial occlusion was defined as a flow rate of <0.01 V for ≧5 min. Doppler measurements were terminated at the 30 min time point following injury (* designates p<0.05).

platelets = test: Clot retraction assay in human platelet-rich plasma, collagen initiated; format: cell-based; conditions: 2.5-5 μg/ml collagen (titration 1-20 μg/ml); FN-439 5 μM, RWJ-56110 1 μM, MMP9/13 Inh 10 nM; 90 or 240 min
Protocol: Platelet rich plasma (PRP) was isolated from human whole blood anti-coagulated with 4% sodium citrate. Clot retraction assays were done in 1 ml volumes containing 800 μl PBS and 200 μl PRP plus 10 μl red blood cells to enhance contrast. Samples were pretreated with FN-439 (5 μM), MMP9/13 Inh (10 nM) or RWJ-56110 (1 μM) for 15 min and clot formation was initiated with 1-20 μg/ml type I fibrillar collagen. Samples were incubated at 37° C. for 90 or 240 min and then photographed with a digital camera. Each photograph in FIG. 6I is representative of three independent experiments.

PAR1 [5] = test: P1pal-7 ammonium acetate salt: IC50 and PAR1 specificity (test not described); conditions: ammonium acetate salt of P1pal-7 in 100% water

Chain of MMP-8 (P22894 101-467, species assumed): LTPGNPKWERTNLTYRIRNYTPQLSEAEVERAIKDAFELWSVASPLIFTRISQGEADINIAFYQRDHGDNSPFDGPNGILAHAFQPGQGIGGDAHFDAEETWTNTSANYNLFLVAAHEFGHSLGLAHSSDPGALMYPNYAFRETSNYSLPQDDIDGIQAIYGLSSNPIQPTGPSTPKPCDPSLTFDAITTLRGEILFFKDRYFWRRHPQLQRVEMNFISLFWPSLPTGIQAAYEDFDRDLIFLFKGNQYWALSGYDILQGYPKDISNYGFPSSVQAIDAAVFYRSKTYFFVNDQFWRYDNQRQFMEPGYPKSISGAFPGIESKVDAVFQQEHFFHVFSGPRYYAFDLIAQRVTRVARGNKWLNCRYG
Chain of MMP-3 (P08254 100-477, species assumed): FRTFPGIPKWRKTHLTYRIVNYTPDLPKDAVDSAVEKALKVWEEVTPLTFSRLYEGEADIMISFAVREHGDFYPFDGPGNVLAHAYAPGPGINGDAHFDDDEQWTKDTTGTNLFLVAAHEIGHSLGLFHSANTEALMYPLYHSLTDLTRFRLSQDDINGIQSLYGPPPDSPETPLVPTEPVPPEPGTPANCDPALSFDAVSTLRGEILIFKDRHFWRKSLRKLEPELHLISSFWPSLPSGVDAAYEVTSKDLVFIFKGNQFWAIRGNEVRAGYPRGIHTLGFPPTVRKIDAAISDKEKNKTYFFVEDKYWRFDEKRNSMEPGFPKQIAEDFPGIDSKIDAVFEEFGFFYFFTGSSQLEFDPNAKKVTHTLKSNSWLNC
Chain of MMP-9 (P14780 94-707, species assumed): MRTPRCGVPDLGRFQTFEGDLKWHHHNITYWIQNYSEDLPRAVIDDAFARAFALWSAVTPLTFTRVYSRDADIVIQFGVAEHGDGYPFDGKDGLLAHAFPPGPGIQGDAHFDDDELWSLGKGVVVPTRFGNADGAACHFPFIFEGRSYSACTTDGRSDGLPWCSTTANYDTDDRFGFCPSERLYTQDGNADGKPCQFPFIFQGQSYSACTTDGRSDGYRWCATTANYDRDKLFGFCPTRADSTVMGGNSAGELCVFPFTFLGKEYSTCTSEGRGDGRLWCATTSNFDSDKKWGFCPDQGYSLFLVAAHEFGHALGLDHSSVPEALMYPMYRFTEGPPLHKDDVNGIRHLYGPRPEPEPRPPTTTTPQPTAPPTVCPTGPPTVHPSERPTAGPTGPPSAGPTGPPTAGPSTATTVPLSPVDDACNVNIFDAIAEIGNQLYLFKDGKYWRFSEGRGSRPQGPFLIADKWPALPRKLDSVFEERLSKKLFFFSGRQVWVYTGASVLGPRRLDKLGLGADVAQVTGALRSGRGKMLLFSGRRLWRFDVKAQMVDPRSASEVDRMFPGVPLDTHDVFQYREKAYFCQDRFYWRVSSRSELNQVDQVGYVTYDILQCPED
T1 sequence (H0V812 1-472): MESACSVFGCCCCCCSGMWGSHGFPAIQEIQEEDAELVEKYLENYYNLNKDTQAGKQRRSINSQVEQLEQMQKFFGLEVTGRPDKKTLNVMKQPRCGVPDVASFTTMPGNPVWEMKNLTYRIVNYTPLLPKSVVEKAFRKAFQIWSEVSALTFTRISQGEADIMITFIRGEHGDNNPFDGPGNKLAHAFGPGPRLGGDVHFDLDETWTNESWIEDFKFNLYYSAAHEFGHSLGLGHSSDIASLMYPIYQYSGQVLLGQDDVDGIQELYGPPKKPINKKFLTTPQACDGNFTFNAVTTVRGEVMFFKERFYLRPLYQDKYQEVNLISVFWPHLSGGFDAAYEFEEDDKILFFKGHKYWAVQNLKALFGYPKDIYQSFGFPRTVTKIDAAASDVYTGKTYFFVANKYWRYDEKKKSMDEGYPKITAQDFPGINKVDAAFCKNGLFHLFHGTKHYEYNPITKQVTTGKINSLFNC

Molecule	block of collagenase activity released by collagen from guinea pig platelets (MMP-1 [1])	IC50 (MMP-3) [µM]	block of MMP-1-induced release of N-terminal cleavage peptide of PAR1 (PAR1 [2]; 3 nM MMP-1, 5 μM FN-439)	block of collagen-induced release of PAR1 N-terminal peptide (PAR1 [2]; 5 μg/ml collagen, 10 min, 37° C., Ab 20 μg/ml, ARC 0.5 μM, ASA 1 mM)	IC50 (MMP-1 [3]) [µM]	block of collagen-activation of phospho-MAPKAP-K2 (MAPKAP-K2)	IC50 (MMP-8) [µM]	IC50 (MMP-9) [µM]	prolongation of the mean occlusion time [4] [%]	inhibition of clot formation and retraction (platelets)	specificity for PAR1 (PAR1 [5])	additional prolongation of arterial occlusion time in combination ([4]; 0.13 mg/kg P1pal-7 supplemented with 0.18 mg/kg bivalirudin)
CC(C)C[C@@H](NC(=O)[C@@H]1CCCN1C(=O)CNC(=O)c1ccc(N)cc1)C(=O)N[C@H](C)C(=O)NO [FN-439] (H-[4Abz]GP[dL][dA]-{NHOH})	completely blocked	150	blocked	specifically blocked	1	blocked	1	30	90	completely inhibited		
P1pal-7: PAR1 i3 loop pepducin lipopeptide, KKSRALF (SEQ ID NO. 2), palmitate (also: palmitate, site not given here)						blocked			80		retains specificity for PAR1	no additional prolongation
